Target: T1, IDO1 (Homo sapiens, UniProt P14902)
T1 construct: endogenous in cells; host or cells: HeLa cells (ATCC), IFNgamma-induced
Assay: IDO1 cell-based assay (HeLa cells, IFNgamma-induced, N-formylkynurenine/L-tryptophan by RFMS)
Conditions: 10 ng/mL IFNgamma, 24 hours
Summary of the method: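 N-formylkynurenine and tryptophan peak areas in media measured by RFMS (C18, isocratic, d-Trp standard), giving IC50 values by regression. Source: HeLa cells incubated 24 h with IFNgamma (10 ng/mL) plus test compound at 0.5% DMSO; parallel CellTiter-Glo viability read.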

T1 sequence (P14902 whole entry): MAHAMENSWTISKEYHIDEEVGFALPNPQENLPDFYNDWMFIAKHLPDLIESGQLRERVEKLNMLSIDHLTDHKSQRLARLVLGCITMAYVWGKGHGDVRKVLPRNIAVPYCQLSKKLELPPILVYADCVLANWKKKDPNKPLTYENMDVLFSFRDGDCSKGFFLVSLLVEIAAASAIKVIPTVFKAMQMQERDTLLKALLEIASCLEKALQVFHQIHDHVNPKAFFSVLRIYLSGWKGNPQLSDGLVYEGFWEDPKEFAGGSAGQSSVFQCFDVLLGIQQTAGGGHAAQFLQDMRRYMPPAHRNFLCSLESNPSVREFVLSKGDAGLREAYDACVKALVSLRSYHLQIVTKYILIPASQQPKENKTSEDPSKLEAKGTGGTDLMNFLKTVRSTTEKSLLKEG

| SMILES | IC50 [nM] |
| --- | --- |
| O=C(NC[C@@H]1[C@H]2C[C@H](n3cnc4cc(F)c(F)cc43)C[C@@H]12)c1cccc(Cl)c1 [Compound 316, 3-chloro-N-(((1R,3s,5S,6r)-3-(5,6-difluoro-1H-benzo[d]imidazol-1-yl)bicyclo[3.1.0]hexan-6-yl)methyl)benzamide] | 200 to 2000 |
| Cc1ccc(C(=O)NC[C@@H]2[C@H]3C[C@H](n4cnc5cc(F)c(F)cc54)C[C@@H]23)cn1 [Compound 317, N-(((1R,3s,5S,6r)-3-(5,6-difluoro-1H-benzo[d]imidazol-1-yl)bicyclo[3.1.0]hexan-6-yl)methyl)-6-methylnicotinamide] | 200 to 2000 |
| COc1ccc(C(=O)NC[C@@H]2[C@H]3C[C@H](n4cnc5cc(F)c(F)cc54)C[C@@H]23)cn1 [Compound 318, N-(((1R,3s,5S,6r)-3-(5,6-difluoro-1H-benzo[d]imidazol-1-yl)bicyclo[3.1.0]hexan-6-yl)methyl)-6-methoxynicotinamide] | 200 to 2000 |
| Cn1cc(C(=O)NC[C@@H]2[C@H]3C[C@H](n4cnc5cc(F)c(F)cc54)C[C@@H]23)cn1 [Compound 319, N-(((1R,3s,5S,6r)-3-(5,6-difluoro-1H-benzo[d]imidazol-1-yl)bicyclo[3.1.0]hexan-6-yl)methyl)-1-methyl-1H-pyrazole-4-carboxamide] | > 5000 |
| O=C(NC[C@@H]1[C@H]2C[C@H](n3cnc4cc(F)c(F)cc43)C[C@@H]12)c1cccc(F)c1 [Compound 320, N-(((1R,3s,5S,6r)-3-(5,6-difluoro-1H-benzo[d]imidazol-1-yl)bicyclo[3.1.0]hexan-6-yl)methyl)-3-fluorobenzamide] | 200 to 2000 |
| N#Cc1cccc(C(=O)NC[C@@H]2[C@H]3C[C@H](n4cnc5cc(F)c(F)cc54)C[C@@H]23)c1 [Compound 321, 3-cyano-N-(((1R,3s,5S,6r)-3-(5,6-difluoro-1H-benzo[d]imidazol-1-yl)bicyclo[3.1.0]hexan-6-yl)methyl)benzamide] | 200 to 2000 |
| Cc1cccc(C(=O)NC[C@@H]2[C@H]3C[C@H](n4cnc5cc(F)c(F)cc54)C[C@@H]23)c1 [Compound 323, N-(((1R,3s,5S,6r)-3-(5,6-difluoro-1H-benzo[d]imidazol-1-yl)bicyclo[3.1.0]hexan-6-yl)methyl)-3-methylbenzamide] | 200 to 2000 |
| CC[C@@H](NC(=O)c1ccc(Cl)cc1)[C@H]1[C@@H]2C[C@@H](n3cc(C(=O)O)cn3)C[C@@H]21 [Compound 328, 1-((1R,3S,5S,6r)-6-((R)-1-(4-chlorobenzamido)propyl)bicyclo[3.1.0]hexan-3-yl)-1H-pyrazole-4-carboxylic acid] | 200 to 2000 |
| CC[C@@H](NC(=O)c1ccc(Cl)cc1)[C@H]1[C@@H]2C[C@@H](n3cc(C(F)(F)F)cn3)C[C@@H]21 [Compound 332, 4-chloro-N-((R)-1-((1R,3S,5S,6r)-3-(4-(trifluoromethyl)-1H-pyrazol-1-yl)bicyclo[3.1.0]hexan-6-yl)propyl)benzamide] | < 200 |
| CC[C@@H](NC(=O)c1ccc(Cl)cc1)[C@H]1[C@@H]2C[C@@H](NC(=O)c3ccccn3)C[C@@H]21 [Compound 333, N-((1R,3S,5S,6r)-6-((R)-1-(4-chlorobenzamido)propyl)bicyclo[3.1.0]hexan-3-yl)picolinamide] | < 200 |
| CC[C@@H](NC(=O)c1ccc(Cl)cc1)[C@H]1[C@@H]2C[C@@H](NC(=O)c3cccnc3)C[C@@H]21 [Compound 335, N-((1R,3S,5S,6r)-6-((R)-1-(4-chlorobenzamido)propyl)bicyclo[3.1.0]hexan-3-yl)nicotinamide] | < 200 |
| CC[C@@H](NC(=O)c1ccc(Cl)cc1)[C@H]1[C@@H]2C[C@@H](Nc3ncnc4ccc(F)cc34)C[C@@H]21 [Compound 336, 4-chloro-N-((R)-1-((1R,3S,5S,6r)-3-((6-fluoroquinazolin-4-yl)amino)bicyclo[3.1.0]hexan-6-yl)propyl)benzamide] | < 200 |
| C#Cc1ccc2ncnc(N[C@@H]3C[C@@H]4[C@H](C3)[C@H]4[C@@H](CC)NC(=O)c3ccc(Cl)cc3)c2c1 [Compound 337, 4-chloro-N-((R)-1-((1R,3S,5S,6r)-3-((6-ethynylquinazolin-4-yl)amino)bicyclo[3.1.0]hexan-6-yl)propyl)benzamide] | < 200 |
| CC[C@@H](NC(=O)c1ccc(Cl)cc1)[C@H]1[C@@H]2C[C@@H](Nc3ncnc4ccc(C)cc34)C[C@@H]21 [Compound 338, 4-chloro-N-((R)-1-((1R,3S,5S,6r)-3-((6-methylquinazolin-4-yl)amino)bicyclo[3.1.0]hexan-6-yl)propyl)benzamide] | < 200 |
| CC(C(=O)Nc1ccc(Cl)cc1)[C@H]1[C@@H]2C[C@@H](Oc3ncnc4ccc(F)cc34)C[C@@H]21 (stereo partly drawn) [Compound 339, N-(4-chlorophenyl)-2-((1R,3s,5S,6r)-3-((6-fluoroquinazolin-4-yl)oxy)bicyclo[3.1.0]hexan-6-yl)propanamide] | < 200 |
| CC(C(=O)Nc1ccc(Cl)cc1)[C@H]1[C@@H]2C[C@@H](Oc3cnnc4ccc(F)cc34)C[C@@H]21 (stereo partly drawn) [Compound 340, N-(4-chlorophenyl)-2-((1R,3s,5S,6r)-3-((6-fluorocinnolin-4-yl)oxy)bicyclo[3.1.0]hexan-6-yl)propanamide] | < 200 |
| C[C@@H](NC(=O)c1ccc(Cl)cc1)[C@H]1[C@@H]2C[C@@H](Oc3cc(Cl)ccc3C(=O)O)C[C@@H]21 [Compound 341, 4-chloro-2-(((1R,3S,5S,6r)-6-((R)-1-(4-chlorobenzamido)ethyl)bicyclo[3.1.0]hexan-3-yl)oxy)benzoic acid] | 2000 to 5000 |
| CC[C@@H](NC(=O)c1ccc(Cl)cc1)[C@H]1[C@@H]2C[C@@H](n3nccc3C3CC3)C[C@@H]21 [Compound 342, 4-chloro-N-((R)-1-((1R,3S,5S,6r)-3-(5-cyclopropyl-1H-pyrazol-1-yl)bicyclo[3.1.0]hexan-6-yl)propyl)benzamide] | < 200 |
| CC[C@@H](NC(=O)c1ccc(Cl)cc1)[C@H]1[C@@H]2C[C@@H](n3ccc(C4CC4)n3)C[C@@H]21 [Compound 343, 4-chloro-N-((R)-1-((1R,3S,5S,6r)-3-(3-cyclopropyl-1H-pyrazol-1-yl)bicyclo[3.1.0]hexan-6-yl)propyl)benzamide] | < 200 |
| CC[C@@H](NC(=O)Nc1ccc(Cl)cc1)[C@H]1[C@@H]2C[C@@H](n3cnc4cc(F)c(F)cc43)C[C@@H]21 [Compound 344, 1-(4-chlorophenyl)-3-((R)-1-((1R,3S,5S,6r)-3-(5,6-difluoro-1H-benzo[d]imidazol-1-yl)bicyclo[3.1.0]hexan-6-yl)propyl)urea] | < 200 |

The remaining lines, values ahead:

| IC50 [nM] | SMILES |
| --- | --- |
| < 200 | O=C(NC[C@@H]1[C@H]2C[C@H](n3cnc4cc(F)c(F)cc43)C[C@@H]12)c1ccc(F)cc1 [Compound 314, N-(((1R,3s,5S,6r)-3-(5,6-difluoro-1H-benzo[d]imidazol-1-yl)bicyclo[3.1.0]hexan-6-yl)methyl)-4-fluorobenzamide] |
| < 200 | O=C(NC[C@@H]1[C@H]2C[C@H](n3cnc4cc(F)c(F)cc43)C[C@@H]12)c1ccc(Cl)c(F)c1 [Compound 315, 4-chloro-N-(((1R,3s,5S,6r)-3-(5,6-difluoro-1H-benzo[d]imidazol-1-yl)bicyclo[3.1.0]hexan-6-yl)methyl)-3-fluorobenzamide] |
| < 200 | Cc1ccc(C(=O)NC[C@@H]2[C@H]3C[C@H](n4cnc5cc(F)c(F)cc54)C[C@@H]23)cc1 [Compound 322, N-(((1R,3s,5S,6r)-3-(5,6-difluoro-1H-benzo[d]imidazol-1-yl)bicyclo[3.1.0]hexan-6-yl)methyl)-4-methylbenzamide] |
| < 200 | CC[C@@H](NC(=O)c1ccc(Cl)cc1)[C@H]1[C@@H]2C[C@@H](n3cccn3)C[C@@H]21 [Compound 324, N-((R)-1-((1R,3S,5S,6r)-3-(1H-pyrazol-1-yl)bicyclo[3.1.0]hexan-6-yl)propyl)-4-chlorobenzamide] |
| < 200 | CC[C@@H](NC(=O)c1ccc(Cl)cc1)[C@H]1[C@@H]2C[C@@H](n3cc(C#N)cn3)C[C@@H]21 [Compound 325, 4-chloro-N-((R)-1-((1R,3S,5S,6r)-3-(4-cyano-1H-pyrazol-1-yl)bicyclo[3.1.0]hexan-6-yl)propyl)benzamide] |
| < 200 | CC[C@@H](NC(=O)c1ccc(Cl)cc1)[C@H]1[C@@H]2C[C@@H](n3cc(C(=O)OC)cn3)C[C@@H]21 [Compound 326, methyl 1-((1R,3S,5S,6r)-6-((R)-1-(4-chlorobenzamido)propyl)bicyclo[3.1.0]hexan-3-yl)-1H-pyrazole-4-carboxylate] |
| < 200 | CC[C@@H](NC(=O)c1ccc(Cl)cc1)[C@H]1[C@@H]2C[C@@H](NC(=O)c3ncccc3F)C[C@@H]21 [Compound 327, N-((1R,3S,5S,6r)-6-((R)-1-(4-chlorobenzamido)propyl)bicyclo[3.1.0]hexan-3-yl)-3-fluoropicolinamide] |
| < 200 | CC[C@@H](NC(=O)c1ccc(Cl)cc1)[C@H]1[C@@H]2C[C@@H](n3cc(Br)cn3)C[C@@H]21 [Compound 329, N-((R)-1-((1R,3S,5S,6r)-3-(4-bromo-1H-pyrazol-1-yl)bicyclo[3.1.0]hexan-6-yl)propyl)-4-chlorobenzamide] |
| < 200 | CC[C@@H](NC(=O)c1ccc(Cl)cc1)[C@H]1[C@@H]2C[C@@H](n3cc(C)cn3)C[C@@H]21 [Compound 330, 4-chloro-N-((R)-1-((1R,3S,5S,6r)-3-(4-methyl-1H-pyrazol-1-yl)bicyclo[3.1.0]hexan-6-yl)propyl)benzamide] |
| < 200 | CC[C@@H](NC(=O)c1ccc(Cl)cc1)[C@H]1[C@@H]2C[C@@H](Nc3ccccc3C#N)C[C@@H]21 [Compound 331, 4-chloro-N—((R)-1-((1R,3S,5S, 6r)-3-((2-cyanophenyl)amino)bicyclo[3.1.0]hexan-6-yl)propyl)benzamide] |
